From ChEMBL document CHEMBL4476865, “Neurotrypsin inhibitors” (2013)

How the values were obtained:
Neurotrypsin = target: T1, Neurotrypsin (Homo sapiens, UniProt P56730); experiment: Inhibition of human neurotrypsin
T1 sequence (P56730 whole entry): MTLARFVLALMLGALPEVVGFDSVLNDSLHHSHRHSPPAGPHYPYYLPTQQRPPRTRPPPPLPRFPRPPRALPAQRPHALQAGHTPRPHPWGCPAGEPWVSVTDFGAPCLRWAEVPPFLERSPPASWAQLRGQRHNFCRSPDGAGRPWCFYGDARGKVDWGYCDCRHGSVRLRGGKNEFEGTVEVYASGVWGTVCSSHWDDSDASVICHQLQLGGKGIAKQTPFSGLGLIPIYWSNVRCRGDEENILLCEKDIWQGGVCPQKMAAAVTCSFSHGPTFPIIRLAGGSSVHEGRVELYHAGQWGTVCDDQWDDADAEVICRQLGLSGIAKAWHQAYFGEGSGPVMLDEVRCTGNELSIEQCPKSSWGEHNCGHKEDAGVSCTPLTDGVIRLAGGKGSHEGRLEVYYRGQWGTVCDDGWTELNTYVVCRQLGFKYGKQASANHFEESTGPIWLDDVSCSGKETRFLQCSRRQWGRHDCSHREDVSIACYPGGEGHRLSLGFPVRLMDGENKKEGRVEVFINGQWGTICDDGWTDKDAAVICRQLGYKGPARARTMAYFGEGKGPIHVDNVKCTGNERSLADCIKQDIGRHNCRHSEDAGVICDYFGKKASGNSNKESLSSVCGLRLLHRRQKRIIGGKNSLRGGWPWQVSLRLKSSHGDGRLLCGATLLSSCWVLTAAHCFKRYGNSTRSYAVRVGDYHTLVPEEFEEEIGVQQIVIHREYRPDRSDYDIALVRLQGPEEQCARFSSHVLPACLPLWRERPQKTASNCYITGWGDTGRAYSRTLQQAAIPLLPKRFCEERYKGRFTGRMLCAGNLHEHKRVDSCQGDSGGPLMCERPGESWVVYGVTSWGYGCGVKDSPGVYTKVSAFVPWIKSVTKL

[1] = Inhibition of hog trypsin assessed as reduction in liberation of free para-nitroanilide using S-2222 substrate incubated for 20 to 30 mins; parameters: species or system Sus scrofa
[2] = Toxicity in C57/BL6 mouse assessed as weight loss dosed 3 times at 25 mg/kg, ip equivalent of active ingredient administered with 8 hrs gap between dose 1 and dose 2 and 16 hrs gap between dose 2 and dose 3 (reference value: 5.67%); type: organism-based; conditions: in vivo

SMILES | IC50 (Neurotrypsin) [µM] | IC50 [1] [µM] | Activity [2] [%]
O=C(NCc1ccc(Cl)s1)c1ccc(NC(=O)c2ccc(-c3nc4cc(Cl)c(Cl)cc4[nH]3)cc2)c(C(=O)O)c1 | 3.3 | – | –
NCCCC[C@H](N)C(=O)O.O=C(Nc1ccc(Cl)cc1)c1ccc(NC(=O)c2ccc(-c3nc4cc(Cl)c(Cl)cc4[nH]3)cc2)c(C(=O)O)c1 | – | > 150 | 5.52
